Source: ChEMBL document CHEMBL1125994, “Synthesis of 9-[2,2-bis(hydroxymethyl)cycloprop-1-yl]guanine as a potential antiviral agent” (Bioorg Med Chem Lett, 1991)
Active and inactive are the calls of the source.

Experiments:
Type in all cases: functional, cell-based
[1] = tested on: MRC5; experiment: Compound was tested for antiviral activity against CMV (cytomegalovirus) (AD169) at a concentration of 100 ug/mL in MRC-5 (human fibroblast) cells; IA denotes inactive
[2] = tested on: MRC5; experiment: Compound was tested for antiviral activity against HSV-2 (MS) strain at a concentration of 100 ug/mL in MRC-5 (human fibroblast) cells; IA denotes inactive
[3] = tested on: MRC5; experiment: Compound was tested for antiviral activity against HSV-1 (SC16 strain)at a concentration of 100 ug/mL in MRC-5 (human fibroblast) cells; IA denotes inactive
[4] = tested on: MRC5; experiment: Compound was tested for antiviral activity against VZV (Ellen) strain at a concentration of 100 ug/mL in MRC-5 (human fibroblast) cells; IA denotes inactive

Measured: Antiviral activity

Nc1nc(O)c2ncn(C3CC3(CO)CO)c2n1 (centres undefined)
inactive: [1] | [2] | [3] | [4]
